According to patent US20100120738A1, “ANTI-APOPTOTIC BENZODIAZEPINE RECEPTOR LIGAND INHIBITORS” (priority 2006, published 2010):
pIC50: −log10 of the molar value. Where two headings read alike, the source gives them in different places.

Tests used:
PC12 cells = assay: Protection against STS-induced apoptosis in PC12 cells (XTT viability assay); type: cell-based, rat
Experimental: Rat pheochromocytoma (PC12) cells were cultured in collagen-coated 96-well plates according to directions provided by the American Type Culture Collection. Staurosporine was added at various concentrations sufficient to induce apoptosis. Test compounds were added together with the staurosporine. Cells were incubated overnight at 37° C., 5% CO2. After 18-24 hours, test media was removed and cell viability was determined using the XTT viability assay described by Baker et al., J. Pharmacol. Exp, Therapeutics 284, 215-221, 1998, the contents of which are incorporated herein by reference.

[1] = test system: Bovine capillary endothelial cells; assay: Protection against radiation-induced apoptosis (DAPI apoptotic index); type: cell-based; settings: low doses; FIG. 13 and FIG. 14
Experimental: Bovine capillary endothelial cells were cultured on eight chamber Labtek slides and exposed to ionizing radiation (20 Gy) for 6 hours. After this time, cells were either left untreated or treated with compound at the concentration indicated on the x-axis. Cells were then fixed in methanol and stained with 5 μg/ml DAPI and DNA was visualized using a Nikon epifluorescence microscope, and apoptosis scored and expressed as an apoptotic index according to the percentage of apoptotic cells in a field of 100 cells. Open bars indicate apoptotic index following irradiation. Hatched bars indicate apoptotic index for control cells not receiving a dose of ionizing radiation.
(§1) Bovine capillary endothelial cells were cultured on eight-chamber Labtek slides and exposed to ionizing radiation (20 Gy), which was calibrated using an X-ray exposure meter. […] In control experiments, cells either received no ionizing radiation (sham) or no compound. After 6 h incubation, the cells were fixed in methanol and stained with 5 μg/ml 4,6-diamidino-2-phenylindole (DAPI). DNA was visualized using a Nikon epifluorescence microscope, and apoptosis was scored and expressed as an apoptotic index (% apoptotic cells in a field of 100).

[2] = test system: Bovine capillary endothelial cells; assay: Cytotoxicity/necrosis of non-irradiated cells (LDH release, field number); type: cell-based
Experimental: as §1, with “100). […] Field number was also calculated for all other compounds tested as a control (results not shown).” for “100).”
To determine cytotoxicity of the compounds under these conditions, duplicate samples of the cells receiving a dose of compound at each concentration tested in the absence of a dose of ionizing radiation were assayed for release of LDH into the culture medium.

[3] = test system: cultured mesencephalic tissue slices; assay: MPP+ induced neurodegeneration in cultured mesencephalic tissue slices (LDH release); type: cell-based, rat; settings: 20 μM MPP+; compound 100 nM, 1.0 μM, 10 μM; FIG. 17
Experimental: FIG. 17 is a graphical representation showing the effects of exemplary low molecular weight metalloporphyrin compounds of the present invention on MPP+ induced neurodegeneration in cultured mesencephalic tissue slices. Mesencephalic tissue slices were prepared from PND 3-5 rats and maintained in culture for 2 weeks. The tissue slices were incubated with a porphyrin compound as indicated on the x-axis for 6 hours before adding 20 μM MPP+ to induce neuronal apoptosis. Concentrations of each porphyrin compound tested were 100 nM ? 1.0 μM ? and 10 μM ? Following a further incubation for 48 hours, the slices were collected and the level of lactate dehydrogenase (LDH) released into the medium was determined.

[4] = Stability in USP simulated gastric fluid (SGF); type: in vitro ADME; settings: 37° C., pH approx. 1.2
Excerpt: Aliquots of SGF were withdrawn and intact compound quantitated by HPLC-UV.

[5] = Lipophilicity by octanol partitioning; type: physicochemical; settings: octanol-water
Experimental: To indicate the likelihood that the compounds will cross lipid membranes and be absorbed once administered by oral means, their lipophilicities were determined by octanol partitioning. […] Quantitation was performed by HPLC-UV.

[6] = Oral bioavailability in vivo, plasma levels by LC-MS/MS after intragastric gavage; set-up: species or system rat
Experimental: FIG. 18 is a graphical representation showing the bioavailability in vivo for the compounds {[{(Porphine-5,15-diyl)bis[cyclopropyl-diyl]}](2-)-N^21,N^22,N^23,N^24} manganese(III) acetate (EUK-418) and {[{(Porphine-5,15-diyl)bis[benzyl-diyl]}](2-)-N^21,N^22,N^23,N^24} manganese(III) acetate (EUK-423) in rats. Fasted and fed Sprague-Dawley rats were dosed by intragastric gavage with either 4 mg/kg EUK-418 or 2 mg/kg EUK-423. At the times indicated on the x-axis, plasma was obtained from the animals and the concentrations of compounds determined by LC-MS/MS.
Fasted and fed Sprague-Dawley rats were dosed by intragastric gavage with either 4 mg/kg EUK-418 or 2 mg/kg EUK-423. At time points up to 7 hr post-administration, animals were sacrificed, their blood collected over heparin, plasma samples prepared by centrifugation, and plasma levels of the compounds were determined by LC-MS/MS.

[7] = Brain uptake (brain level over plasma level); type: in vivo; settings: above 20 ul/g indicates delivery across the blood-brain barrier
Experimental: In further studies, compounds are administered orally to animals as described above, or alternatively, by daily i.p. injection for up to five days at concentrations of about 0.3 mg/kg body weight, 3.0 mg/kg and 30 mg/kg. The animals are then sacrificed and their brains removed and snap-frozen in liquid nitrogen. The brains are homogenized in methanol containing 5% TCA, and the soluble fraction is prepared by centrifugation.
Levels of compounds in the brain tissue are determined by LC-MS (HPLLC, Waters; Mass Spectrometer, Micromass Quattro). The half-life of each compound administered to the animals is determined over a period of time from about 5 minutes up to about 2 days.
Brain bioavailability is determined by calculating brain uptake at all time points. Brain uptake is the ratio of brain levels (as moles/g tissue) over plasma levels (as […] and is expressed as ul/g. One gram of brain tissue contains approximately 20 ul of plasma. Thus, any brain uptake value above 20 ul/g is indicative of delivery across the blood-brain barrier to the brain parenchyma. For example, the brain uptake values for EUK-418 are in excess of about 100 ul/g.

[8] = Superoxide dismutase (SOD) activity; type: biochemical

C1=Cc2nc1cc1ccc([n-]1)c(C1CC1)c1nc(cc3ccc([n-]3)c2C2CC2)C=C1.CC(=O)[O-].[Mn+3] [EUK-418, {[{(Porphine-5,15-diyl)bis[cyclopropyl-diyl]}](2-)-N^21,N^22,N^23,N^24} manganese(III) acetate]
effect on staurosporine-induced apoptosis of PC12 cells (PC12 cells; FIG. 11): effectively reduce apoptosis
effect on staurosporine-induced apoptosis of PC12 cells (PC12 cells; FIG. 12, at up to about 5 μM concentration, toxicity blunts protection at high concentrations): effectively reduce apoptosis
protection of cells exposed to ionizing radiation [1]: protected
necrosis at the protective concentration ([2]; 3 μM EUK-418, about 3-10 μM EUK-423): failed to induce noticeable necrosis
concentration causing significant increase in field number for control cells, indicating cytotoxicity ([2]; control cells without ionizing radiation): ≥ 30 µM
prevention of cytotoxicity induced by MPP+ [3]: prevent cytotoxicity
Percentage remaining after 90 mins in SGF [4]: 92.2%
Log10 P value [5]: 0.548 ± 0.009
P value (octanol partitioning coefficient) [5]: 3.53 ± 0.14
effect of fasting of animals on plasma concentration ([6]; 4 mg/kg intragastric gavage): increase plasma concentration
plasma concentration to which compound declined for the assayed period ([6]; 4 mg/kg intragastric gavage, fasted rats, up to 7 hr): about 100 ng/ml
plasma time course ([6]; intragastric gavage, 4 mg/kg EUK-418 or 2 mg/kg EUK-423): increased rapidly in serum of fasted rats
found in plasma / bioavailable after oral administration ([6]; intragastric gavage, 4 mg/kg EUK-418 or 2 mg/kg EUK-423, fasted and fed rats): bioavailable in vivo
brain uptake value (brain level / plasma level) [7]: > 100 µL/g
pIC50 ([8]; cuvette format, read-out: Cuvette IC50): 5.08
pIC50 ([8]; microplate format, read-out: Microplate IC50): 6.42
